Measured values: patent US20140162942A1, “INHIBITION OF CYP3A DRUG METABOLISM” (priority 2010, published 2014)

What was measured:
CYP3A4/5 = test: Clinical study: effect of boceprevir on the pharmacokinetic profile of midazolam in healthy adult subjects; conditions: for AUC(0-t) / Cmax / Tmax: both, human, in vivo, 4 mg; for Tmax: MDZ Tmax
Procedure: A clinical study was conducted to determine the effects of boceprevir on the pharmacokinetic (PK) profile of midazolam (MDZ) to assess the ability of boceprevir to inhibit CYP3A4/5 in vivo by monitoring its effect on the metabolism of MDZ, a sensitive CYP3A4/5 substrate.
This study was conducted in healthy adult subjects (seven male and five female subjects), at a single center, in conformance with Good Clinical Practices. The study used a fixed-sequence design ([…]). The PK profile of MDZ and its metabolite (1-hydroxy midazolam [1-0H-MDZ)) was determined when MDZ was administered alone and compared with the PK profile after co-administration of boceprevir as well as following a washout period of 7 days after boceprevir administration.
Boceprevir (BOC) 800 mg was administered as 4×200 mg capsules. MDZ 4 mg was administered as a single dose of an oral solution.
Day 1: MDZ 4 mg (oral solution, single dose)
Days 1 to 5: Boceprevir 800 mg (4×200 mg capsules) TID
Day 6: MDZ 4 mg (oral solution, single dose) and boceprevir 800 mg (4×200 mg capsules) TID Days 8 and 13: MDZ 4 mg (oral solution, single dose)
Blood samples for PK analyses were collected: for MDZ and 1-0H-MDZ: Days −1, 6, 8, and 13: predose (Ohr) and at 0.5, 1, 2, 3, 4, 8, 12, and 24 hours postdose for boceprevir: predose (Ohr) on Day 4 and Day 5 and on Day 6: predose (Ohr), and at 0.5, 1, 2, 3, 4, 6, and 8 hr postdose. The 8 hour sample was to be collected prior to the administration of the next dose of Boceprevir.

HCV NS3 serine protease = HCV NS3 serine protease (Hepatitis C virus genotype 1a, UniProt P27958); conditions: as described in WO2005/015579; cited from earlier work
Chain of HCV NS3 serine protease (P27958 1658-1711): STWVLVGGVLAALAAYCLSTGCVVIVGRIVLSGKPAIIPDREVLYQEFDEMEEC
Chain of HCV NS3 serine protease (P27958 1027-1657): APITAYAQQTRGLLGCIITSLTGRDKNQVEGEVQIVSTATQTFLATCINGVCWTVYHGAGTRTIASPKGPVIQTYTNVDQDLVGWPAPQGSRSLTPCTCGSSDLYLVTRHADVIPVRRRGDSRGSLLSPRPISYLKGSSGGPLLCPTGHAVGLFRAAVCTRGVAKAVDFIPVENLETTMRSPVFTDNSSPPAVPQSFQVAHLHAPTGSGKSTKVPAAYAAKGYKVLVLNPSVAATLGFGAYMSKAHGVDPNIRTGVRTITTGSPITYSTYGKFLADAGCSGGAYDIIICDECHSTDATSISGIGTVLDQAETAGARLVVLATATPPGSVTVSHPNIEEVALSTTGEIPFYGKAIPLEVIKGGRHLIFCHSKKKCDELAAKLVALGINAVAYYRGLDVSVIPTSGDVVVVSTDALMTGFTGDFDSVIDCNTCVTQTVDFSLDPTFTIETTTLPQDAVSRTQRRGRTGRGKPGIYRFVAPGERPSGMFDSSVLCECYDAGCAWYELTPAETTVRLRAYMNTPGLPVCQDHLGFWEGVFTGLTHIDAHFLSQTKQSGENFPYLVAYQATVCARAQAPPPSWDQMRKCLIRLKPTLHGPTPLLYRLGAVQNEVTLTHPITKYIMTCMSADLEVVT

SMILES	Plasma concentrations of MDZ, return to baseline after boceprevir (CYP3A4/5; 48 hours post last administration of boceprevir)	AUC(0-t) (CYP3A4/5; MDZ AUC (0-24 hr) LS Mean, MDZ Alone (Day 8)) [ng·h/mL]	AUC(0-t) (CYP3A4/5; MDZ AUC (0-24 hr) LS Mean, MDZ Alone (Day 13)) [ng·h/mL]	AUC(0-t) (CYP3A4/5; MDZ AUC (0-24 hr) LS Mean, MDZ Alone (Day-1)) [ng·h/mL]	AUC(0-t) (CYP3A4/5; MDZ AUC(0-24 hr), MDZ Alone (Day 8), after boceprevir) [ng·h/mL]	AUC(0-t) (CYP3A4/5; MDZ AUC(0-24 hr), MDZ Alone (Day 13), after boceprevir) [ng·h/mL]	Cmax (CYP3A4/5; MDZ Cmax LS Mean, MDZ Alone (Day 8)) [ng/mL]	Cmax (CYP3A4/5; MDZ Cmax LS Mean, MDZ Alone (Day 13)) [ng/mL]	Cmax (CYP3A4/5; MDZ Cmax LS Mean, MDZ Alone (Day-1)) [ng/mL]	Cmax (CYP3A4/5; MDZ Cmax, MDZ Alone (Day 8), after boceprevir) [ng/mL]	Cmax (CYP3A4/5; MDZ Cmax, MDZ Alone (Day 13), after boceprevir) [ng/mL]	Tmax (CYP3A4/5; MDZ Alone (Day 8), after boceprevir) [h]	Tmax (CYP3A4/5; MDZ Alone (Day 13), after boceprevir) [h]	AUC(0-t) (CYP3A4/5; po, MDZ AUC(0-24 hr), MDZ Alone (Day-1), MDZ 4 mg oral, n = 12) [ng·h/mL]	Cmax (CYP3A4/5; po, MDZ Cmax, MDZ Alone (Day-1), MDZ 4 mg oral, n = 12) [ng/mL]	Tmax (CYP3A4/5; po, MDZ Alone (Day-1), MDZ 4 mg oral, n = 12) [h]	in vitro HCV NS3 serine protease inhibitory activity compared with the compound of Formula 1c (HCV NS3 serine protease)
Cc1ncc2n1-c1ccc(Cl)cc1C(c1ccccc1F)=NC2 [MDZ, midazolam]	returned to baseline values by Day 8	56.1	43.8	52.9	59.2	45.4	9.82	8.94	9.96	10.3	9.15	2	1	56.4	10.3	2	–
CC(C)(C)NC(=O)N[C@H](C(=O)N1C[C@H]2[C@@H]([C@H]1C(=O)N[C@@H](CC1CCC1)C(=O)C(N)=O)C2(C)C)C(C)(C)C [Formula 1b, (1R,2S,5S)—N-[(1S)-3-amino-1-(cyclobutylmethyl)-2,3-dioxopropyl]-3-[(2S)-2[[[(1,1-dimethylethyl)amino]carbonyl]amino]-3,3-dimethyl-1-oxobutyl]-6,6-dimethyl-3-azabicyclo[3.1.0]hexane-2-carboxamide]	–	–	–	–	–	–	–	–	–	–	–	–	–	–	–	–	significantly higher
